IC50 and Ratio IC50 data for three molecules are collected here from ChEMBL document CHEMBL6153062, “Design, Synthesis, and Unprecedented Interactions of Covalent Dipeptide-Based Inhibitors of SARS-CoV-2 Main Protease and Its Variants Displaying Potent Antiviral Activity” (J Med Chem, 2025).

The nature of assay [1]: Inhibition of SARS-CoV-2 MPro E166 V mutant. On the set-up: species or system Severe acute respiratory syndrome coronavirus 2.
Assay [2] can be described thus: Inhibition of SARS-CoV-2 MPro L50F/E166A/L167F mutant. On the set-up: species or system Severe acute respiratory syndrome coronavirus 2.
Assay [3] in a line: Inhibition of SARS-CoV-2 MPro S144F mutant. Further details: species or system Severe acute respiratory syndrome coronavirus 2.
The nature of assay [4]: Inhibition of SARS-CoV-2 MPro S144Y mutant. Further details: species or system Severe acute respiratory syndrome coronavirus 2.
Assay [5] is described as follows: Inhibition of SARS-CoV-2 MPro Q192S mutant. Further details: species or system Severe acute respiratory syndrome coronavirus 2.
Assay [6] in a line: Inhibition of SARS-CoV-2 MPro deltaP168 mutant. Further details: species or system Severe acute respiratory syndrome coronavirus 2.
Assay [7] in a line: Inhibition of SARS-CoV-2 MPro S144G mutant. Further details: species or system Severe acute respiratory syndrome coronavirus 2.
Assay [8] can be described thus: Inhibition of SARS-CoV-2 MPro M165T mutant. Further details: species or system Severe acute respiratory syndrome coronavirus 2.
Assay [9] in a line: Inhibition of SARS-CoV-2 MPro Q189E mutant. On the set-up: species or system Severe acute respiratory syndrome coronavirus 2.
The nature of assay [10]: Inhibition of SARS-CoV-2 MPro A173 V mutant. Further details: species or system Severe acute respiratory syndrome coronavirus 2.
The nature of assay [11]: Inhibition of SARS-CoV-2 MPro S144M mutant. Further details: species or system Severe acute respiratory syndrome coronavirus 2.
Assay [12] is described as follows: Inhibition of SARS-CoV-2 MPro G143S mutant. Further details: species or system Severe acute respiratory syndrome coronavirus 2.
A short description of assay [13]: Inhibition of SARS-CoV-2 MPro H172Q mutant. On the set-up: species or system Severe acute respiratory syndrome coronavirus 2.
Assay [14] can be described thus: Inhibition of SARS-CoV-2 MPro H172F mutant. Further details: species or system Severe acute respiratory syndrome coronavirus 2.
Assay [15] is described as follows: Inhibition of SARS-CoV-2 MPro S144A mutant. On the set-up: species or system Severe acute respiratory syndrome coronavirus 2.
The nature of assay [16]: Inhibition of SARS-CoV-2 MPro H172Y mutant. On the set-up: species or system Severe acute respiratory syndrome coronavirus 2.
The test system of assay [17] is Severe acute respiratory syndrome coronavirus 2. In words: Selectivity index, ratio of IC50 for inhibition of SARS-CoV-2 MPro E166 V mutant to IC50 for inhibition of wild type SARS-CoV-2 MPro.
Assay [18] shares this test system. In words: Selectivity index, ratio of IC50 for inhibition of SARS-CoV-2 MPro S144M mutant to IC50 for inhibition of wild type SARS-CoV-2 MPro.
The test system is the same in assay [19]. In words: Selectivity index, ratio of IC50 for inhibition of SARS-CoV-2 MPro S144G mutant to IC50 for inhibition of wild type SARS-CoV-2 MPro.
For assay [20] the test system is unchanged. Briefly: Selectivity index, ratio of IC50 for inhibition of SARS-CoV-2 MPro H172Y mutant to IC50 for inhibition of wild type SARS-CoV-2 MPro.
Assay [21] has the same test system. In words: Selectivity index, ratio of IC50 for inhibition of SARS-CoV-2 MPro H172Q mutant to IC50 for inhibition of wild type SARS-CoV-2 MPro.
Assay [22] shares this test system. Briefly: Selectivity index, ratio of IC50 for inhibition of SARS-CoV-2 MPro Q189E mutant to IC50 for inhibition of wild type SARS-CoV-2 MPro.
Assay [23] has the same test system. Briefly: Selectivity index, ratio of IC50 for inhibition of SARS-CoV-2 MPro M165T mutant to IC50 for inhibition of wild type SARS-CoV-2 MPro.
For assay [24] the test system is unchanged. In words: Selectivity index, ratio of IC50 for inhibition of SARS-CoV-2 MPro deltaP168 mutant to IC50 for inhibition of wild type SARS-CoV-2 MPro.
Assay [25] has the same test system. In words: Selectivity index, ratio of IC50 for inhibition of SARS-CoV-2 MPro Q192S mutant to IC50 for inhibition of wild type SARS-CoV-2 MPro.
The test system is the same in assay [26]. Briefly: Selectivity index, ratio of IC50 for inhibition of SARS-CoV-2 MPro S144A mutant to IC50 for inhibition of wild type SARS-CoV-2 MPro.
The test system is the same in assay [27]. In words: Selectivity index, ratio of IC50 for inhibition of SARS-CoV-2 MPro S144Y mutant to IC50 for inhibition of wild type SARS-CoV-2 MPro.
Assay [28] has the same test system. Briefly: Selectivity index, ratio of IC50 for inhibition of SARS-CoV-2 MPro L50F/E166A/L167F mutant to IC50 for inhibition of wild type SARS-CoV-2 MPro.
For assay [29] the test system is unchanged. In words: Selectivity index, ratio of IC50 for inhibition of SARS-CoV-2 MPro A173 V mutant to IC50 for inhibition of wild type SARS-CoV-2 MPro.
The test system is the same in assay [30]. Briefly: Selectivity index, ratio of IC50 for inhibition of SARS-CoV-2 MPro H172F mutant to IC50 for inhibition of wild type SARS-CoV-2 MPro.
The test system is the same in assay [31]. Briefly: Selectivity index, ratio of IC50 for inhibition of SARS-CoV-2 MPro S144F mutant to IC50 for inhibition of wild type SARS-CoV-2 MPro.
For assay [32] the test system is unchanged. Briefly: Selectivity index, ratio of IC50 for inhibition of SARS-CoV-2 MPro G143S mutant to IC50 for inhibition of wild type SARS-CoV-2 MPro.

Broadly, the IC50 is the midpoint of a concentration-inhibition curve. Read a low IC50 as greater potency in that assay. For the molecule `C=CC(=O)[C@H](Cc1ccccc1)NC(=O)[C@H](CC(C)C)NC(=O)COc1ccc(Cl)cc1Cl`, the IC50 in assay [1] was found to be 0.409 µM; in [2], 0.392 µM; in [3], 0.636 µM; in assay [4], 0.497 µM; in assay [5], 0.488 µM; in assay [6] it was 0.368 µM. The IC50 in assay [7] was 0.472 µM; in [8], 1.39 µM; in assay [9], 0.714 µM; in assay [10], 0.14 µM; in assay [11], 0.745 µM; in [12], 0.23 µM. The IC50 was 0.39 µM in assay [13], 0.313 µM in [14], 0.328 µM in assay [15] and 1.28 µM in assay [16].

On to `C=CC(=O)[C@H](Cc1cccc(Cl)c1)NC(=O)[C@H](CC(C)C)NC(=O)CSc1ccccc1`, for which the IC50 in assay [1] turned out to be 0.236 µM; in [2], 0.239 µM; in [3], 0.219 µM; in assay [4], 0.244 µM; in [5], 0.261 µM; in assay [6] it was 0.0654 µM. Also, the IC50 in assay [7] worked out at 0.254 µM; in assay [8], 0.26 µM; in assay [9] it was 0.211 µM; in [10], 0.0824 µM; in assay [11], 0.414 µM; in [12], 0.155 µM. Further, the IC50 came to 0.159 µM in [13], 0.146 µM in [14], 0.0425 µM in assay [15] and 0.297 µM in [16]. Besides, the Ratio IC50 is 20.2 in assay [17]; 35.4 in assay [18]; 21.7 in [19]; 25.4 in assay [20]; 13.6 in assay [21]; 18 in assay [22]. Besides, the Ratio IC50 in assay [23] is 22.2; in [24] it was 5.6; in [25] it was 22.3; in assay [26], 3.6; in [27], 20.9; in assay [28] it was 20.4. Also, the Ratio IC50 in assay [29] came out at 7; in assay [30] it was 12.5; in assay [31] it was 18.7; in [32], 13.2.

Turning to `CC(C)(C)[C@H](NC(=O)C(F)(F)F)C(=O)N1C[C@H]2[C@@H]([C@H]1C(=O)N[C@H](C#N)C[C@@H]1CCNC1=O)C2(C)C`, the 50% inhibitory concentration (IC50) in assay [1] was 2.62 µM; in assay [2], 0.512 µM; in assay [3], 0.176 µM; in assay [4], 0.203 µM; in assay [6], 0.047 µM; in assay [8], 0.181 µM. Further, the IC50 in [9] was 0.199 µM; in [10], 0.0855 µM; in assay [11], 0.426 µM; in assay [14], 1.7 µM; in assay [15] it was 0.0417 µM.
